# Assay results as given in US8569264B2, “Antibacterial 4,5-substituted aminoglycoside analogs having multiple substituents” (ISIS Pharmaceuticals, Inc., priority 2005, dated 2013).
# Several values for one entry are separate records, joined by “and”; a condition that tells them apart may be missing. Equal entries are not always repeated.
# Experiments:
# E. Coli = test: MIC, E. Coli; format: cell-based; details: for MIC: Escherichia coli
# Description: (§1) The MIC assays are carried out in 150 μL volume in duplicate in 96-well clear flat-bottom plates. The bacterial suspension from an overnight culture growth in appropriate medium is added to a solution of test compound in 4% DMSO in water. Final bacterial inoculum is approximately 10^5-10^6 CFU/well. […] Both ampicillin and tetracycline are used as antibiotic-positive controls in each screening assay for S. pyogenes, E. coli imp-, E. coli, S. aureus, E. faecalis, K. pneumoniae and P. vulgaris. Ciprofloxacin is used as an antibiotic positive control in each screening assay for P. aeruginosa.
# S. Aureus = test: MIC, S. Aureus; format: cell-based; details: for MIC: Staphylococcus aureus
# Description: as §1
SMILES,MIC E. Coli. (E. Coli; Example 107) [µM],MIC S. Aureus (S. Aureus; Example 107),MIC E. Coli. (E. Coli; Example 109),MIC S. Aureus (S. Aureus; Example 109),other results
NCC1OC(OC2C(CO)OC(OC3C(O)C(N)CC(N)C3OC3OC(CO)C(O)C(O)C3N)C2OCCNCCC2CC3CCC2C3)C(N)C(O)C1O (stereo not drawn) [Compound 9ab],>10,5 to 10 µM,–,–,–
NCC1OC(OC2C(CO)OC(OC3C(O)C(N)CC(N)C3OC3OC(CO)C(O)C(O)C3N)C2OCCNC2CCCc3ccccc32)C(N)C(O)C1O (stereo not drawn) [Compound 9ac],>10,1.3 to 2.5 µM,–,–,–
NCC1OC(OC2C(CO)OC(OC3C(O)C(N)CC(N)C3OC3OC(CO)C(O)C(O)C3N)C2OCCNCCc2cc(C(F)(F)F)cc(C(F)(F)F)c2)C(N)C(O)C1O (stereo not drawn) [Compound 9af],>10,2.5-5^ uM,–,–,–
NCC1OC(OC2C(CO)OC(OC3C(O)C(N)CC(N)C3OC3OC(CO)C(O)C(O)C3N)C2OCCNCCc2ccc(C(F)(F)F)cc2)C(N)C(O)C1O (stereo not drawn) [Compound 9ah],5 to 10,0.6 to 1.2 µM,–,–,–
NC[C@@H]1O[C@H](O[C@H]2[C@@H](OCCOCCCC3CCCCC3)[C@H](O[C@@H]3[C@@H](O)[C@H](N)C[C@H](N)[C@H]3O[C@H]3O[C@H](CO)[C@@H](O)[C@H](O)[C@H]3N)O[C@@H]2CO)[C@H](N)[C@@H](O)[C@@H]1O [Compound 12b],–,–,–,–,MIC (E. Coli; Example 107): 20 to 40 µM; MIC (S. Aureus; Example 107): 5 to 10 µM
NC[C@@H]1O[C@H](O[C@H]2[C@@H](OCCCc3ccccc3)[C@H](O[C@@H]3[C@@H](O)[C@H](N)C[C@H](N)[C@H]3O[C@H]3O[C@H](CO)[C@@H](O)[C@H](O)[C@H]3N)O[C@@H]2CO)[C@H](N)[C@@H](O)[C@@H]1O [Compound 14b],–,–,–,–,MIC (E. Coli; Example 107): 20 to 40 µM; MIC (S. Aureus; Example 107): 3 to 5 µM
Cc1ccc(CCNCC2OC(OC3C(N)CC(N)C(O)C3OC3OC(CO)C(OC4OC(CN)C(O)C(O)C4N)C3O)C(N)C(O)C2O)cc1 (stereo not drawn) [Compound 15g],–,–,2.5-5^ uM,0.6 to 1.2 µM,–
CN(CCc1ccccc1)CC1OC(OC2C(N)CC(N)C(O)C2OC2OC(CO)C(OC3OC(CN)C(O)C(O)C3N)C2O)C(N)C(O)C1O (stereo not drawn) [Compound 15k],–,–,2.5-5^ uM,0.3 to 0.6 µM,–
NCC1OC(OC2C(CO)OC(OC3C(O)C(N)CC(N)C3OC3OC(CNCCc4ccc(C5CCCCC5)cc4)C(O)C(O)C3N)C2O)C(N)C(O)C1O (stereo not drawn) [Compound 15m],–,–,1.3 to 2.5 µM,0.3 to 0.6 µM,–
COc1ccccc1CCNCC1OC(OC2C(N)CC(N)C(O)C2OC2OC(CO)C(OC3OC(CN)C(O)C(O)C3N)C2O)C(N)C(O)C1O (stereo not drawn) [Compound 15n],–,–,–,0.2 to 0.3 µM and 0.3 to 0.6 µM,–
NCC1OC(OC2C(CO)OC(OC3C(O)C(N)CC(N)C3OC3OC(CNCCc4ccc(C(F)(F)F)cc4)C(O)C(O)C3N)C2O)C(N)C(O)C1O (stereo not drawn) [Compound 15q],–,–,1.3 to 2.5 µM,0.3 to 0.6 µM,–
COc1ccc(CCNCC2OC(OC3C(N)CC(N)C(O)C3OC3OC(CO)C(OC4OC(CN)C(O)C(O)C4N)C3O)C(N)C(O)C2O)cc1 (stereo not drawn) [Compound 15r],–,–,1.3 to 2.5 µM,0.3 to 0.6 µM,–
NCC1OC(OC2C(CO)OC(OC3C(O)C(N)CC(N)C3OC3OC(CN4CCC5CCCCC54)C(O)C(O)C3N)C2O)C(N)C(O)C1O (stereo not drawn) [Compound 15s],–,–,1.3 to 2.5 µM,0.3 to 0.6 µM,–
NC1CC(N)C(OC2OC(CO)C(O)C(O)C2N)C(OC2OC(CO)C(O)C2OCCNCCc2ccccc2)C1O (stereo not drawn) [Compound 30c],>100,12 to 25 µM,–,–,–
